Measured values taken from patent US20050197336A1 (Miikana Therapeutics Corporation, priority 2004, published 2005).

Columns and labels:
[1] = test system: Histone deacetylase (HDAC), HeLa cell nuclear extract; assay: In vitro fluorescent histone deacetylase assay (Biomol kit, HeLa cell nuclear extract); format: biochemical; conditions: compound at 100 μM; HeLa cell nuclear extract as HDAC source; substrate 50 μM; 10 min at room temperature
Experimental: Histone deacetylase (HDAC) activity assays were performed using the HDAC fluorescent activity assay/drug discovery kit (Biomol Research Laboratories, Plymouth Meeting, Pa.) essentially according to the manufacturer's instructions. The included HeLa cell nuclear extract, which contains a mosaic of HDAC enzymes and other nuclear factors, was used as the source of HDAC activity. The final substrate concentration in the assay mixture was 50 μM. The reaction was allowed to proceed for 10 min at room temperature before stopping the reaction. Test compounds were prepared as 20 mM stock solutions in DMSO (Molecular Biology grade, Sigma-Aldrich Co. St. Louis, Mo.) and stored at −70° C. Serial dilutions of test compounds were prepared in assay buffer immediately prior to testing. DMSO was determined in a separate trial to have no significant effect on the activity of this assay at concentrations up to 5%; the final DMSO concentration in the wells was no more than 2% and therefore DMSO effects were safely neglected. Assays were performed in white polystyrene 96-well half-area assay plates (Corning, Corning, N.Y.) and measured on a Wallace 1420 fluorescent plate reader (Wallac Oy, Turku, Finland) with an excitation wavelength of 355 nm, an emission wavelength of 460 nm, and a 1 sec signal averaging time.

MCF7 cells = assay: Whole cell cytotoxicity assay: Sulforhodamine B; format: cell-based, human; conditions: Homo sapiens; compound at 100 μM; MCF7 cell growth; 48 hours with drug; SRB staining
Outline: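 MCF7 cells in DMEM with 10% FBS were seeded 24 h before compound, then exposed to nine concentrations for 48 h at 37° C. TCA-fixed cells stained with sulforhodamine B; absorbance at 570 nm, with a time-zero plate fixed at drug addition.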

SMILES	% inhibition HDAC @ 100 μM [1] [%]	inhibition at 100 µM (MCF7 cells) [%]
CN(C)C(=O)c1ccc(-c2ccc(S(=O)(=O)N3CCN(c4ncc(C(=O)NO)s4)CC3)cc2)cc1 [Example 68, 2-[4-(4′-N,N-dimethylcarboxamido-1,1′-biphenylsulfonyl)piperazin-1-yl]-1,3-thiazole-5-carboxylic acid hydroxyamide]	99	84.7
O=C(NO)c1cnc(N2CCN(S(=O)(=O)c3ccc(-c4ccncc4)cc3)CC2)s1 [Example 72, 2-{4-[4-(pyridin-4-yl)phenylsulfonyl]piperazin-1-yl}-1,3-thiazole-5-carboxylic acid hydroxyamide]	98	84.5
O=C(NO)c1cnc(N2CCN(S(=O)(=O)c3ccc(-c4cccc(CN5CCCCC5)c4)cc3)CC2)s1 [Example 73]	100	96.7
CN(C)Cc1cccc(-c2ccc(S(=O)(=O)N3CCN(c4ncc(C(=O)NO)s4)CC3)cc2)c1.Cl [Example 74]	100	97.3
Cl.O=C(NO)c1cnc(N2CCN(S(=O)(=O)c3ccc(-c4cccc(CN5CCCC5)c4)cc3)CC2)s1 [Example 75]	100	98.6
CC1CCN(Cc2cccc(-c3ccc(S(=O)(=O)N4CCN(c5ncc(C(=O)NO)s5)CC4)cc3)c2)CC1.Cl [Example 76]	99	98
Cl.O=C(NO)c1cnc(N2CCN(S(=O)(=O)c3ccc(-c4cccc(CN5CCCCCC5)c4)cc3)CC2)s1 [Example 77]	100	98
CCN(CC)Cc1cccc(-c2ccc(S(=O)(=O)N3CCN(c4ncc(C(=O)NO)s4)CC3)cc2)c1.Cl [Example 78]	100	99
C=CCN(C)Cc1cccc(-c2ccc(S(=O)(=O)N3CCN(c4ncc(C(=O)NO)s4)CC3)cc2)c1.Cl [Example 79]	99	98
CN(C)Cc1ccc(-c2ccc(S(=O)(=O)N3CCN(c4ncc(C(=O)NO)s4)CC3)cc2)cc1 [Example 80]	99	97.9
CN(C)Cc1sccc1-c1ccc(S(=O)(=O)N2CCN(c3ncc(C(=O)NO)s3)CC2)cc1 [Example 81]	100	97.1
O=C(NO)c1cnc(N2CCN(S(=O)(=O)c3ccc(-c4ccsc4CN4CCCC4)cc3)CC2)s1 [Example 82]	99	92.7
CN1CCN(Cc2cccc(-c3ccc(S(=O)(=O)N4CCN(c5ncc(C(=O)NO)s5)CC4)cc3)c2)CC1 [Example 84]	100	96.7
CCN(C)Cc1cccc(-c2ccc(S(=O)(=O)N3CCN(c4ncc(C(=O)NO)s4)CC3)cc2)c1 [Example 86]	99	97.8
CC(C)N(C)Cc1cccc(-c2ccc(S(=O)(=O)N3CCN(c4ncc(C(=O)NO)s4)CC3)cc2)c1 [Example 87, 2-{4-[(3′-[isopropyl(methyl)amino]methyl]-1,1′-biphenylsulfonyl]-piperazin-1-yl}-1,3-thiazole-5-carboxylic acid hydroxyamide]	99	97.7
O=C(NO)c1cnc(N2CCN(S(=O)(=O)c3ccc(-c4ccc(CN5CCCC5)s4)cc3)CC2)s1 [Example 88]	99	93.8
O=C(NO)c1cnc(N2CCN(S(=O)(=O)c3ccc(-c4sccc4CN4CCCC4)cc3)CC2)s1 [Example 89]	99	98.3
O=C(NO)c1cnc(N2CCN(S(=O)(=O)c3ccc(-c4cccc(CN5CCCC5)c4)s3)CC2)s1 [Example 90, 2-(4-{5-[3-(pyrrolidin-1-ylmethyl)phenyl]thiophene-2-sulfonyl}piperazin-1-yl)-1,3-thiazole-5-carboxylic acid hydroxyamide]	99	98
O=C(NO)c1cnc(N2CCN(S(=O)(=O)c3ccc(-c4cncnc4)cc3)CC2)s1 [Example 91, 2-[4-{(4-pyrimidine)benzenesulfonyl}-piperazin-1-yl]-thiazole-5-carboxylic acid hydroxyamide]	99	94.6
CC(=O)Nc1ccc(-c2ccc(S(=O)(=O)N3CCN(c4ncc(C(=O)NO)s4)CC3)cc2)cc1 [Example 92]	100	88.8
O=C(NO)c1cnc(N2CCN(S(=O)(=O)c3ccc(-c4cccnc4)cc3)CC2)s1 [Example 93, 2-[4-{(3-pyrido)benzenesulfonyl}-piperazin-1-yl]-thiazole-5-carboxylic acid hydroxyamide]	100	92.7
O=C(NO)c1cnc(N2CCN(S(=O)(=O)CCc3ccccc3)CC2)s1 [Example 94, 2-[4-(phenethylsulfonyl)-piperazin-1-yl]-thiazole-5-carboxylic acid hydroxyamide]	98	90.6
CN(C)Cc1ccc(S(=O)(=O)N2CCN(c3ncc(C(=O)NO)s3)CC2)cc1 [Example 95]	98	96.8
CN(C)Cc1cccc(S(=O)(=O)N2CCN(c3ncc(C(=O)NO)s3)CC2)c1 [Example 97]	99	83.9
O=C(NO)c1cnc(N2CCN(S(=O)(=O)c3cccc(CN4CCCC4)c3)CC2)s1 [Example 98]	98	92.2
COCc1cccc(S(=O)(=O)N2CCN(c3ncc(C(=O)NO)s3)CC2)c1 [Example 99, 2-[4-(3-methoxymethylbenzenesulfonyl)-piperazin-1-yl]-thiazole-5-carboxylic acid hydroxyamide]	99	96
Cn1cnc(S(=O)(=O)N2CCN(c3ncc(C(=O)NO)s3)CC2)c1 [Example 102]	99	84
COc1ccc(S(=O)(=O)N2CCN(c3ncc(C(=O)NO)s3)CC2)cc1 [Example 103, 2-[4-(4-Methoxybenzenesulfonyl)piperazin-1-yl]-thiazole-5-carboxylic acid hydroxyamide]	100	97.5
O=C(NO)c1cnc(N2CCN(S(=O)(=O)c3ccc(CN4CCCC4)cc3)CC2)s1 [Example 105]	99	93
O=C(NO)c1cnc(N2CCN(S(=O)(=O)c3ccc(CN4CCOCC4)cc3)CC2)s1 [Example 106]	99	82.3
